# Test results published in PubChem BioAssay AID224 (DTP/NCI, 2004).
# “And” between values parts separate entries of the source, which are not always exact repeats. Identical values can stand only once. Inconclusive results and toxic doses are left out.
# System: P335 leukemia ip, BDF1 mice, survival T/C %
# Assay: NCI In Vivo Anticancer Drug Screen. Data for tumor model P335 Leukemia (intraperitoneal) in B6D2F1 (BDF1) mice
# Conditions: endpoint: mean survival time, higher = longer survival
# Description: The antitumor activity of compounds was measured in mice bearing transplantable tumors. Survival or tumor size were measured and the results are expressed as the measurement made in the treated group (T) divided by the measurement made in the vehicle treated control group (C). The tumor model used in this assay is P335 Leukemia (intraperitoneal) in B6D2F1 (BDF1) mice
# [1] = dose: 3.75 mg/kg/injection, schedule: Q01DX Z (ip), vehicle: carboxymethylcellulose (CMC)
# [2] = dose: 6.25 mg/kg/injection, schedule: Q01DX Z (ip), vehicle: saline
# [3] = dose: 1.0 mg/kg/injection, schedule: Q01DX Z (ip), vehicle: water
# [4] = dose: 12.5 mg/kg/injection, schedule: Q01DX Z (ip), vehicle: saline
# [5] = dose: 100.0 mg/kg/injection, schedule: Q01DX Z (ip), vehicle: saline
# [6] = dose: 16.0 mg/kg/injection, schedule: Q01DX Z (sc), vehicle: steriod suspending solution
compound,measurement,setting,value
O[C@H](CN1CC1)[C@@H](O)CN1CC1,T/C,"dose: 1.8 micrograms/kg/injection, schedule: Q01DX Z (ip), vehicle: carboxymethylcellulose (CMC)",95 % of control
same,T/C,"dose: 3.7 micrograms/kg/injection, schedule: Q01DX Z (ip), vehicle: carboxymethylcellulose (CMC)",111 % of control
same,T/C,"dose: 7.5 micrograms/kg/injection, schedule: Q01DX Z (ip), vehicle: carboxymethylcellulose (CMC)",119 % of control
same,T/C,"dose: 15.0 micrograms/kg/injection, schedule: Q01DX Z (ip), vehicle: carboxymethylcellulose (CMC)",109 % of control
C[C@H]1C(=O)O[C@@H]2CCN3CC=C(COC(=O)[C@](C)(O)[C@@]1(C)O)[C@H]23,T/C,[1],87 % of control
same,T/C,"dose: 7.5 mg/kg/injection, schedule: Q01DX Z (ip), vehicle: carboxymethylcellulose (CMC)",94 % of control
same,T/C,"dose: 15.0 mg/kg/injection, schedule: Q01DX Z (ip), vehicle: carboxymethylcellulose (CMC)",91 % of control and 93 % of control
same,T/C,"dose: 30.0 mg/kg/injection, schedule: Q01DX Z (ip), vehicle: carboxymethylcellulose (CMC)",96 % of control
COc1cc2c(c(OC)c1OC)-c1ccc(OC)c(=O)cc1[C@@H](NC(C)=O)CC2,T/C,"dose: 63.0 micrograms/kg/injection, schedule: Q01DX Z (ip), vehicle: saline",104 % of control
same,T/C,"dose: 125.0 micrograms/kg/injection, schedule: Q01DX Z (ip), vehicle: saline",101 % of control
same,T/C,"dose: 250.0 micrograms/kg/injection, schedule: Q01DX Z (ip), vehicle: saline",104 % of control
CN(C)c1ccc(/C=C\c2ccnc3ccccc23)cc1,T/C,"dose: 0.8 mg/kg/injection, schedule: Q01DX Z (ip), vehicle: water",100 % of control
same,T/C,"dose: 1.6 mg/kg/injection, schedule: Q01DX Z (ip), vehicle: water",98 % of control
same,T/C,"dose: 3.1 mg/kg/injection, schedule: Q01DX Z (ip), vehicle: water",102 % of control
same,T/C,"dose: 6.2 mg/kg/injection, schedule: Q01DX Z (ip), vehicle: water",109 % of control
O=P1(N(CCCl)CCCl)NCCCO1 (stereo not drawn),T/C,[2],113 % of control
same,T/C,"dose: 200.0 mg/kg/injection, schedule: Q01DX Z (ip), vehicle: saline",107 % of control
Cc1n[nH]c(=O)[nH]c1=O,T/C,"dose: 50.0 mg/kg/injection, schedule: Q01DX Z (ip), vehicle: other",97 % of control
same,T/C,"dose: 100.0 mg/kg/injection, schedule: Q01DX Z (ip), vehicle: other",97 % of control
same,T/C,"dose: 200.0 mg/kg/injection, schedule: Q01DX Z (ip), vehicle: other",102 % of control
same,T/C,"dose: 400.0 mg/kg/injection, schedule: Q01DX Z (ip), vehicle: other",103 % of control
O=c1cnn(C2OC(CO)C(O)C2O)c(=O)[nH]1 (stereo not drawn),T/C,"dose: 0.98 mg/kg/injection, schedule: Q01DX Z (ip), vehicle: water",102 % of control
same,T/C,[3],95 % of control
same,T/C,"dose: 1.95 mg/kg/injection, schedule: Q01DX Z (ip), vehicle: water",115 % of control
same,T/C,"dose: 2.0 mg/kg/injection, schedule: Q01DX Z (ip), vehicle: water",98 % of control
same,T/C,"dose: 3.9 mg/kg/injection, schedule: Q01DX Z (ip), vehicle: water",105 % of control
same,T/C,"dose: 7.8 mg/kg/injection, schedule: Q01DX Z (ip), vehicle: water",112 % of control
same,T/C,"dose: 8.0 mg/kg/injection, schedule: Q01DX Z (ip), vehicle: water",93 % of control
same,T/C,"dose: 15.6 mg/kg/injection, schedule: Q01DX Z (ip), vehicle: water",152 % of control
same,T/C,"dose: 250.0 mg/kg/injection, schedule: Q01DX Z (ip), vehicle: water",101 % of control
same,T/C,"dose: 500.0 mg/kg/injection, schedule: Q01DX Z (ip), vehicle: water",104 % of control
same,T/C,"dose: 1000.0 mg/kg/injection, schedule: Q01DX Z (ip), vehicle: water",112 % of control
CCN(CC)CCNc1ccc(C)c2sc3ccccc3c(=O)c12,T/C,"dose: 0.78 mg/kg/injection, schedule: Q01DX Z (ip), vehicle: methylcellulose (MC)",89 % of control
same,T/C,"dose: 6.25 mg/kg/injection, schedule: Q01DX Z (ip), vehicle: methylcellulose (MC)",92 % of control
same,T/C,"dose: 50.0 mg/kg/injection, schedule: Q01DX Z (ip), vehicle: methylcellulose (MC)",89 % of control
same,T/C,"dose: 100.0 mg/kg/injection, schedule: Q01DX Z (ip), vehicle: methylcellulose (MC)",93 % of control
O=NN(CCCl)C(=O)NCCCl,T/C,"dose: 16.0 mg/kg/injection, schedule: Q01DX Z (ip), vehicle: saline",95 % of control
[I][Hg][CH2]C1COC([CH2][Hg][I])CO1 (stereo not drawn),T/C,[1],110 % of control
C[C@@H]1C[C@@H]([C@H](O)CC2CC(=O)NC(=O)C2)C(=O)[C@@H](C)C1,T/C,"dose: 0.78 mg/kg/injection, schedule: Q01DX Z (ip), vehicle: water",113 % of control
same,T/C,"dose: 1.56 mg/kg/injection, schedule: Q01DX Z (ip), vehicle: water",106 % of control and 112 % of control
same,T/C,"dose: 3.12 mg/kg/injection, schedule: Q01DX Z (ip), vehicle: water",89 % of control
same,T/C,"dose: 6.25 mg/kg/injection, schedule: Q01DX Z (ip), vehicle: water",100 % of control
same,T/C,"dose: 12.5 mg/kg/injection, schedule: Q01DX Z (ip), vehicle: water",106 % of control
same,T/C,"dose: 25.0 mg/kg/injection, schedule: Q01DX Z (ip), vehicle: water",100 % of control
same,T/C,"dose: 50.0 mg/kg/injection, schedule: Q01DX Z (ip), vehicle: water",111 % of control
CCCNc1ncnc2[nH]ncc12,T/C,"dose: 0.62 mg/kg/injection, schedule: Q01DX Z (ip), vehicle: water",95 % of control
same,T/C,"dose: 5.0 mg/kg/injection, schedule: Q01DX Z (ip), vehicle: water",94 % of control
CN(N=O)C(=O)NC(C=O)C(O)C(O)C(O)CO (stereo not drawn),T/C,[2],96 % of control
same,T/C,[4],112 % of control
same,T/C,"dose: 25.0 mg/kg/injection, schedule: Q01DX Z (ip), vehicle: saline",113 % of control
same,T/C,[5],151 % of control
O=CCC(O)C(O)C(O)CO (stereo not drawn),T/C,"dose: 0.8 mg/kg/injection, schedule: Q01DX Z (ip), vehicle: carboxymethylcellulose (CMC)",104 % of control
same,T/C,"dose: 16.0 mg/kg/injection, schedule: Q01DX Z (ip), vehicle: carboxymethylcellulose (CMC)",100 % of control
same,T/C,"dose: 31.0 mg/kg/injection, schedule: Q01DX Z (ip), vehicle: carboxymethylcellulose (CMC)",93 % of control
same,T/C,"dose: 62.5 mg/kg/injection, schedule: Q01DX Z (ip), vehicle: carboxymethylcellulose (CMC)",114 % of control
same,T/C,"dose: 125.0 mg/kg/injection, schedule: Q01DX Z (ip), vehicle: carboxymethylcellulose (CMC)",104 % of control
C[C@]12C=CC(=O)C=C1CC[C@@H]1[C@@H]2[C@@H](O)C[C@@]2(C)[C@H]1CC[C@]2(O)C(=O)CO,T/C,"dose: 2.0 mg/kg/injection, schedule: Q01DX Z (sc), vehicle: steriod suspending solution",97 % of control
same,T/C,"dose: 4.0 mg/kg/injection, schedule: Q01DX Z (sc), vehicle: steriod suspending solution",103 % of control and 111 % of control
same,T/C,"dose: 8.0 mg/kg/injection, schedule: Q01DX Z (sc), vehicle: steriod suspending solution",101 % of control and 117 % of control
same,T/C,[6],95 % of control and 117 % of control
same,T/C,"dose: 32.0 mg/kg/injection, schedule: Q01DX Z (sc), vehicle: steriod suspending solution",95 % of control
N#Cc1cn(C2OC(CO)C(O)C2O)c2ncnc(N)c12 (stereo not drawn),T/C,"dose: 0.25 mg/kg/injection, schedule: Q01DX Z (ip), vehicle: carboxymethylcellulose (CMC)",106 % of control
same,T/C,"dose: 0.5 mg/kg/injection, schedule: Q01DX Z (ip), vehicle: carboxymethylcellulose (CMC)",98 % of control
CC[C@@H](c1ccc(O)cc1)[C@@H](CC)c1ccc(O)cc1,T/C,[6],96 % of control
same,T/C,"dose: 31.25 mg/kg/injection, schedule: Q01DX Z (sc), vehicle: steriod suspending solution",93 % of control
same,T/C,"dose: 125.0 mg/kg/injection, schedule: Q01DX Z (sc), vehicle: steriod suspending solution",96 % of control
same,T/C,"dose: 500.0 mg/kg/injection, schedule: Q01DX Z (sc), vehicle: steriod suspending solution",104 % of control
same,T/C,"dose: 1000.0 mg/kg/injection, schedule: Q01DX Z (sc), vehicle: steriod suspending solution",95 % of control
CC[C@]1(O)C[C@H]2CN(CCc3c([nH]c4ccccc34)[C@@](C(=O)OC)(c3cc4c(cc3OC)N(C=O)[C@H]3[C@@](O)(C(=O)OC)[C@H](OC(C)=O)[C@]5(CC)C=CCN6CC[C@]43[C@@H]65)C2)C1,T/C,"dose: 0.12 mg/kg/injection, schedule: Q01DX Z (ip), vehicle: water",234 % of control and 101 % of control and 107 % of control
same,T/C,"dose: 0.5 mg/kg/injection, schedule: Q01DX Z (ip), vehicle: water",89 % of control and 90 % of control
same,T/C,[3],86 % of control
O=c1[nH]cc(F)c(=O)[nH]1,T/C,"dose: 0.78 mg/kg/injection, schedule: Q01DX Z (ip), vehicle: saline",103 % of control
same,T/C,"dose: 2.34 mg/kg/injection, schedule: Q01DX Z (ip), vehicle: saline",123 % of control
same,T/C,"dose: 4.68 mg/kg/injection, schedule: Q01DX Z (ip), vehicle: saline",118 % of control
same,T/C,"dose: 9.35 mg/kg/injection, schedule: Q01DX Z (ip), vehicle: saline",113 % of control
same,T/C,[4],100 % of control
same,T/C,"dose: 18.7 mg/kg/injection, schedule: Q01DX Z (ip), vehicle: saline",108 % of control
same,T/C,[5],93 % of control
